This experiment deals with Histamine H4 receptor (Homo sapiens, UniProt Q9H3N8). The experiment is described as follows: Inhibitory activity measured by [3H]- N alpha- methyl-histamine binding to membranes of SK-N-MC cells expressing the human Histamine H4 receptor.

From BindingDB's records for doi:10.1021/jm030905y (Vrije Universiteit, 2003) come the findings set out here.

Structures are written as SMILES.

Histamine H4 receptor, sequence (Q9H3N8 whole entry): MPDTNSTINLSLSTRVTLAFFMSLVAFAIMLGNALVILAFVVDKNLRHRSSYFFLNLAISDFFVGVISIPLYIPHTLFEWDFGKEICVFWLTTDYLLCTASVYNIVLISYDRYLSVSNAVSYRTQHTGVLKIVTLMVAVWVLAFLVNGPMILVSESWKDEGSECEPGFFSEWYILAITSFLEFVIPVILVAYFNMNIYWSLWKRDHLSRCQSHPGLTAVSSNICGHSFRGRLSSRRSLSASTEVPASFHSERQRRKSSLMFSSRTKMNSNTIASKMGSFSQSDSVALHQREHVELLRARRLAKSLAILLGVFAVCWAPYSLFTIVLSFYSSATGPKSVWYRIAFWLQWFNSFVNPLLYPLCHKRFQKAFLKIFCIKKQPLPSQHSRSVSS

The compound `NCCCc1c[nH]cn1` [Homohistamine] yielded a Ki of 34.7 nM.
The figure for `C[C@@H](N)Cc1c[nH]cn1` [CHEBI:73337] is 239 nM.

For orientation: Ki means a dissociation constant, usually derived from enzyme kinetics or from competition with a known ligand. A higher Ki goes with weaker binding.
